# Reference: PubChem BioAssay AID1963420 (Molecular Pharmacology Branch, DTP, NCI, 2024)
# System: 494315-158-R-J1-PDC complex spheroid growth, percent test/control
# Assay: Anticancer human tumor 494315-158-R-J1-PDC patient-derived soft tissue sarcoma cell line growth inhibition [Asc]
# Conditions: for IC50: curve of first compound; for viability, T/C: stronger effect = lower value
# How it was run: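 Concentration series start at each agent's clinical Cmax, or at 10 microM when none is established, and drop in half-log steps; agents are applied alone or together to complex spheroids built with HUVEC and hMSC.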
# 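Also: compound exposure lasted seven days after spheroids formed for three days.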
compound,measurement,setting,value
NC(=O)C(=Cn1cnc(-c2cc(C(F)(F)F)cc(C(F)(F)F)c2)n1)c1cncnc1 + Cc1c(S(C)(=O)=O)c(-c2cc(F)cc(N3CCN(c4ccc(NS(=O)(=O)c5ccc(NC(CCN6CCC(C(=O)OCCCP(=O)(O)O)CC6)CSc6ccccc6)c(S(=O)(=O)C(F)(F)F)c5)cc4)CC3)c2)c(-c2ccc(Cl)cc2)n1C(C)C,IC50,second compound 0.1 µM,0.0232 µM
same,IC50,second compound 0.316 µM,0.0124 µM
same,IC50,second compound 1 µM,0.00667 µM
same,IC50,second compound 3.16 µM,0.00319 µM
same,IC50,second compound 10 µM,0.0101 µM
same,"viability, T/C","second compound 0.1 µM, first compound 0.000949 µM",79.5%
same,"viability, T/C","second compound 0.1 µM, first compound 0.003 µM",82.6%
same,"viability, T/C","second compound 0.1 µM, first compound 0.00949 µM",66.8%
same,"viability, T/C","second compound 0.1 µM, first compound 0.03 µM",44.9%
same,"viability, T/C","second compound 0.1 µM, first compound 0.0949 µM",19.2%
same,"viability, T/C","second compound 0.1 µM, first compound 0.3 µM",6.1%
same,"viability, T/C","second compound 0.316 µM, first compound 0.000949 µM",72.7%
same,"viability, T/C","second compound 0.316 µM, first compound 0.003 µM",65.4%
same,"viability, T/C","second compound 0.316 µM, first compound 0.00949 µM",51.3%
same,"viability, T/C","second compound 0.316 µM, first compound 0.03 µM",40.7%
same,"viability, T/C","second compound 0.316 µM, first compound 0.0949 µM",23.2%
same,"viability, T/C","second compound 0.316 µM, first compound 0.3 µM",4.23%
same,"viability, T/C","second compound 1 µM, first compound 0.000949 µM",53.7%
same,"viability, T/C","second compound 1 µM, first compound 0.003 µM",57.8%
same,"viability, T/C","second compound 1 µM, first compound 0.00949 µM",46.2%
same,"viability, T/C","second compound 1 µM, first compound 0.03 µM",35.1%
same,"viability, T/C","second compound 1 µM, first compound 0.0949 µM",16.3%
same,"viability, T/C","second compound 1 µM, first compound 0.3 µM",4.03%
same,"viability, T/C","second compound 3.16 µM, first compound 0.000949 µM",52.2%
same,"viability, T/C","second compound 3.16 µM, first compound 0.003 µM",52.2%
same,"viability, T/C","second compound 3.16 µM, first compound 0.00949 µM",41.8%
same,"viability, T/C","second compound 3.16 µM, first compound 0.03 µM",24%
same,"viability, T/C","second compound 3.16 µM, first compound 0.0949 µM",12.9%
same,"viability, T/C","second compound 3.16 µM, first compound 0.3 µM",2.93%
same,"viability, T/C","second compound 10 µM, first compound 0.000949 µM",67.4%
same,"viability, T/C","second compound 10 µM, first compound 0.003 µM",58%
same,"viability, T/C","second compound 10 µM, first compound 0.00949 µM",54.7%
same,"viability, T/C","second compound 10 µM, first compound 0.03 µM",29.2%
same,"viability, T/C","second compound 10 µM, first compound 0.0949 µM",14.8%
same,"viability, T/C","second compound 10 µM, first compound 0.3 µM",2.12%
NC1CCC(NC2CC2c2ccccc2)CC1 (stereo not given) + Cc1c(S(C)(=O)=O)c(-c2cc(F)cc(N3CCN(c4ccc(NS(=O)(=O)c5ccc(NC(CCN6CCC(C(=O)OCCCP(=O)(O)O)CC6)CSc6ccccc6)c(S(=O)(=O)C(F)(F)F)c5)cc4)CC3)c2)c(-c2ccc(Cl)cc2)n1C(C)C,IC50,second compound 0.1 µM,> 0.1 µM
same,IC50,second compound 0.316 µM,> 0.1 µM
same,IC50,second compound 1 µM,0.00933 µM
same,IC50,second compound 3.16 µM,0.000337 µM
same,IC50,second compound 10 µM,> 0.1 µM
same,"viability, T/C","second compound 0.1 µM, first compound 0.000316 µM",72.5%
same,"viability, T/C","second compound 0.1 µM, first compound 0.001 µM",71.3%
same,"viability, T/C","second compound 0.1 µM, first compound 0.00316 µM",78.8%
same,"viability, T/C","second compound 0.1 µM, first compound 0.01 µM",68.5%
same,"viability, T/C","second compound 0.1 µM, first compound 0.0316 µM",74.6%
same,"viability, T/C","second compound 0.1 µM, first compound 0.1 µM",72.9%
same,"viability, T/C","second compound 0.316 µM, first compound 0.000316 µM",56.4%
same,"viability, T/C","second compound 0.316 µM, first compound 0.001 µM",61.5%
same,"viability, T/C","second compound 0.316 µM, first compound 0.00316 µM",61%
same,"viability, T/C","second compound 0.316 µM, first compound 0.01 µM",57.6%
same,"viability, T/C","second compound 0.316 µM, first compound 0.0316 µM",64.5%
same,"viability, T/C","second compound 0.316 µM, first compound 0.1 µM",61.8%
same,"viability, T/C","second compound 1 µM, first compound 0.000316 µM",53.3%
same,"viability, T/C","second compound 1 µM, first compound 0.001 µM",67.5%
same,"viability, T/C","second compound 1 µM, first compound 0.00316 µM",61.7%
same,"viability, T/C","second compound 1 µM, first compound 0.01 µM",47.9%
same,"viability, T/C","second compound 1 µM, first compound 0.0316 µM",44.4%
same,"viability, T/C","second compound 1 µM, first compound 0.1 µM",55.6%
same,"viability, T/C","second compound 3.16 µM, first compound 0.000316 µM",49.9%
same,"viability, T/C","second compound 3.16 µM, first compound 0.001 µM",47.4%
same,"viability, T/C","second compound 3.16 µM, first compound 0.00316 µM",43.6%
same,"viability, T/C","second compound 3.16 µM, first compound 0.01 µM",43%
same,"viability, T/C","second compound 3.16 µM, first compound 0.0316 µM",39.8%
same,"viability, T/C","second compound 3.16 µM, first compound 0.1 µM",47.5%
same,"viability, T/C","second compound 10 µM, first compound 0.000316 µM",58%
same,"viability, T/C","second compound 10 µM, first compound 0.001 µM",58.6%
same,"viability, T/C","second compound 10 µM, first compound 0.00316 µM",57.9%
same,"viability, T/C","second compound 10 µM, first compound 0.01 µM",57.6%
same,"viability, T/C","second compound 10 µM, first compound 0.0316 µM",57.1%
same,"viability, T/C","second compound 10 µM, first compound 0.1 µM",56%
